The source of these data is US10781426B2 (priority 2012, dated 2020).

In experiment [1] the test system is DPP4. Type of experiment: cell-based.
The test system of experiment [2] is HCoV EMC. The format is cell-based.

For the compound `Nc1ncnc2c1ncn2[C@@H]1O[C@H](CO)[C@@H](O)[C@H]1O` [adenosine], the DPP4 expression entry in experiment [1] is “down regulates”. Moreover, in experiment [2], the “cells' susceptibility to virus infection” value was “reduces the cells' susceptibility to virus infection” and the virus replication entry is “reduces virus replication”.
